Reference: US6342368B1, “WD-40-derived peptides and uses thereof” (The Board of Trustees of the Leland Stanford Junior …, priority 1994, dated 2002)
Entries after “also recorded” stand apart in the source; their conditions may differ.

How the values were obtained:
βPKC = target: T1, βPKC (Rattus norvegicus, UniProt P68403); experiment: Sensitivity of βPKC to Arg-C endopeptidase (nicking); assay type: biochemical; details: low activators: 2.5 μg/ml PS and 50 μM CaCl2; peptide 10 μM
T1 construct: All the solutions contained 5 nM rat brain PKC; from tissue; host or cells: rat brain
From the text: Upon activation of PKC, a pseudosubstrate autoinhibitory sequence at the N-terminus of the molecule dissociates from the catalytic site and becomes sensitive to endopeptidase Arg-C (Orr, et al.). In the absence of PKC activators, exposure of the 80 kDa βPKC to endopeptidase Arg-C has no effect on the enzyme (see FIG. 7, lane 1). In the presence of the PKC activators PS, DG and calcium, however, exposure of βPKC to Arg-C results in a “nicking” of the PKC (i.e. limited proteolysis generating a 78 kDa fragment and several small fragments (see FIG. 7, lane 2)). Continued exposure to Arg-C results in the disappearance of βPKC (Orr, et al.). The present experiment tests whether peptides derived from the WD-40 region of RACK1 alter the sensitivity of βPKC to endopeptidase Arg-C.
The methods used to assay Arg-C sensitivity are a modification of methods described by Orr, et al. Rat brain PKC (˜5 nM) was incubated at room temperature in 500 μl of 20 mM Tris-HCl buffer (pH 7.5) alone or with Arg-C (5 units/ml) in the presence or absence of the indicated peptides (final concentration 10 μM or as indicated), PS, DG, and calcium (as indicated). 50 μl aliquots were removed into 20 μl of sample buffer during the reaction as indicated (samples in all the lanes were incubated for 30 minutes , except lanes 5, and 6, which were incubated for 5 and 15 minutes, respectively). The samples were boiled for 10 minutes at 80° C. and loaded onto 8% SDS-PAGE. βPKC was detected by Western blot analysis using anti-βPKC antibodies as described in Examples 6 and 8.
PKC was incubated for the indicated time alone (lane 1) or in the presence of Arg-C (lanes 2-9), with DG (0.8 μg/ml), PS (50 μg/ml) and CaCl2 (1 mM; lane 2), with PS (50 μg/ml) and CaCl2 (1 mM; lane 3), with PS (2.5 μg/ml) and CaCl2 (50 μM; lane 4); with PS (2.5 μg/ml), CaCl2 (50 μM) and with either peptide rVI (SEQ ID NO:7; 10 μM; lanes 5-7), control peptide (SEQ ID NO:9; lane 8) or with peptide I (SEQ ID NO:1; lane 9).

Xenopus oocytes = experiment: PKC-mediated Xenopus oocyte maturation (germinal vesicle breakdown, GVBD) after peptide microinjection; assay type: cell-based; details: for plateau % GVBD (fraction of oocytes reaching maturation) following insulin exposure: peptide 50 μM, 50 nl microinjected, 20 h time course
Description: Exposure to insulin induces maturation in Xenopus oocytes via a PKC-dependent pathway (Smith, et al., 1992). The maturation response may be quantified by monitoring the appearance of a white spot in the animal hemisphere of the oocyte, indicating germinal vesicle breakdown (GVBD) and maturation. To assess the effects of RACK1 WD-40-derived peptides on insulin-induced PKC-mediated maturation, 50 nl of a 20 mM NaCl solution containing the indicated peptides [peptide I (SEQ ID NO:1; ●), peptide rVI (SEQ ID NO:7; ▪), or injection solution (□)] (peptides at 50 μM) were microinjected into Xenopus oocytes. […] One hour following the peptide injections, the oocytes were exposed to a solution containing insulin (8.25 μg/ml) for 2 minutes (t=0). 10-15 oocytes were used for each sample.
The data, representative of three independent experiments, are expressed as the percent of oocytes with GVBD following insulin exposure and are plotted as a function of time in FIG. 5.

PKC [1] = experiment: PKC autophosphorylation; assay type: biochemical, rat; details: peptide 10 μM; absence of PKC activators
Description: Rat brain PKC (˜10 nM) was incubated with mild agitation in a final volume of 250 μl of overlay buffer, as in Example 1 either with anti-βPKC pseudosubstrate antibodies (1:10 dilution, Life Technologies, Gaithersburg, Md.) or with the indicated peptide (10 μM). Where indicated, PS (50 μg/ml), DG (0.8 μg/ml) and CaCl2 (1 mM) were also added. The amount of autophosphorylation was determined after 2 hours for the reaction with the anti-pseudosubstrate antibodies, or after 15 minutes for the other samples. 50 μl of a buffer comprised of 20 mM Tris-HCl (pH 7.5), 20 mM MgCl2, 20 μM ATP and 5 μci/ml [γ-^32P]ATP. The mixture was incubated for 15 minutes at room temperature and the reaction was stopped by adding 60 μl sample buffer (see Example 9). The samples were then boiled for 10 minutes, loaded onto a 10% SDS-PAGE mini gel and electrophoresed. The gel was fixed with 50% methanol and 10% acetic acid for 1 hour, and the autophosphorylation of PKC was determined by autoradiography.
The results in FIG. 8 show PKC autophosphorylation in the presence of DG, PS, and calcium (lane 1), in the presence of EGTA (lane 2), in the presence of anti-βPKC pseudosubstrate antibodies (diluted 1:10 in 20 mM Tris-HCl; lane 3), in the presence of peptide rVI (SEQ ID NO:7; 10 μM; lane 4), in the presence of peptide I (SEQ ID NO:1; 10 μM; lane 5), or in the presence of control peptide (SEQ ID NO:9; 10 μM; lane 6).

RACK1 = target: T2, RACK1 (Rattus norvegicus, UniProt P63245); experiment: Overlay assay: concentration dependence of PKC binding to recombinant RACK1; details: βPKC in the presence of other PKC isozymes, n=3
T2 construct: an open reading frame of 317 amino acids from the putative translation start site of pRACK1; made in house; host or cells: TB1 E. coli (RACK1); PKC mixture from rat brain
Description: Purified recombinant RACK1 protein (100-250 μg per lane, produced as detailed in Example 2) was subjected to SDS/PAGE and blotted onto nitrocellulose membranes (Ausubel). The nitrocellulose membranes were cut into strips, which were incubated for 0.5 hr in overlay buffer (Example 1) in the presence or absence of a mixture of PKC isozymes (α, β, γ, δ, ε and ζ, ˜10 nM each final concentration) and PKC activators (60 μg/ml phosphatidylserine (PS), 2 μg/ml diacylglycerol (DG), and 1 mM CaCl2). Unbound material was removed by five washes, 5-min each, in overlay wash buffer. Where indicated, PKC activators were present during the incubation of PKC with the nitrocellulose strips. The conditions for each sample and corresponding results are presented in part D below.
PKC bound to RACK1 immobilized on nitrocellulose strips was detected as follows. […]
The concentration dependence of PKC binding to RACK1 was characterized with βPKC , since this isozyme is a major component of the PKC mixture used for the overlay assay. The mean half maximal binding was ˜0.375 nM, and maximal binding was ˜4 nM (n=3; values reflect binding of βPKC isozyme in the presence of other PKC isozymes and was determined by scanning autoradiograms in the linear range of detection, as described in Mochly-Rosen, et al., (1991).

PKC [2] = experiment: Histone type IIIs phosphorylation by PKC; assay type: biochemical; details: absence of PS, DG and calcium; peptide 10 μM
Description: Histone type IIIs (Sigma Chemical Company, St. Louis, Mo.) was phosphorylated by PKC (˜10 nM) in the absence (lane 1) and presence of peptide rVI (10 μM) (lanes 2 and 3) and in the presence and absence of DG (0.8 μg/ml), PS (50 μg/ml) and CaCl2 (1 mM) (lane 3). The results are expressed as percentage of control that is the amount of Histone phosphorylation by PKC in the presence of DG (0.8 μg/ml), PS (50 μg/ml) and CaCl2 (1 mM). The results are the average ± SEM of two independent experiments. PKC was first incubated with the peptide rVI (10 μM) for 15 minutes in overlay buffer as described above. Histone type IIIs (40 μg/ml) was added in Tris-HCl (20 mM), MgCl2 (20 mM), ATP (20 μM) and ([γ-^32P]ATP (5 μci/ml) with or without PS (50 μg/ml), DG (0.8 μg/ml) and CaCl2 (1 mM). Histone phosphorylation was determined by autoradiography as above.

δ and εPKC isozymes = experiment: PKC isozyme translocation and degradation in cardiac myocytes; assay type: cell-based, rat
Description: In cardiac myocytes, norepinephrine (NE, 2 μM) causes translocation of δ and εPKC isozymes from the cytosolic to the particulate fraction. […] This peptide-induced translocation was followed by degradation of δ and εPKC isozymes.

[3] = system: PKC binding to recombinant RACK1; experiment: Overlay / overlay-extraction assay: inhibition of PKC binding to recombinant RACK1 by peptides; set-up: species or system rat; details: 10 μM peptide preincubated with PKC
Description: The variation in the overlay protocol consisted of incubating the putative binding peptides with a mixture of PKC isozymes for 15 minutes at room temperature before the mixture was used to contact the nitrocellulose strips containing immobilized RACK1.
Nitrocellulose strips containing immobilized RACK1, that had been contacted with a solution containing a mixture of PKC isozymes, were washed and the area corresponding to the 36 kDa (RACK1-containing) band was cut out. The pieces (containing PKC/RACK1 complexes) were incubated with sample buffer for 10 minutes at 80° C. The sample buffer and the nitrocellulose pieces were then placed in wells in the PAGE gel and subjected to SDS-PAGE to elute the bound proteins. The gel was blotted onto nitrocellulose and a Western blot analysis was carried out using the mixture of antibodies (specific for PKC α, β, γ, δ, ε and ζ isozymes) described in Example 1 part B. Bound antibodies were detected by ^125I-protein A.
Peptides derived from or homologous to WD-40 repeats of RACK1 were tested for their ability to inhibit PKC binding to recombinant RACK1. Binding of PKC to RACK1 was carried out using a variation of the overlay procedure described in Example 3 part B. In the experimental samples, peptides were incubated with a solution containing a mixture of rat brain PKC isozymes (˜10 nM each) for 15 minutes at room temperature.
Following completion of the modified overlay protocol, the samples were subjected to the overlay-extraction protocol detailed in part B, above.
The results in FIG. 3 show the binding of PKC to RACK1, carried out without (lane 1) or with (lanes 2-4) a preincubation of peptides with PKC. […] Peptide I caused an 81±6% inhibition of PKC binding to recombinant RACK1 as compared with binding in the absence of added peptide (n=3). Lanes 3 and 4 show PKC binding following a preincubation with 10 μM peptide rIII (SEQ ID NO:4) and 10 μM peptide rVI (SEQ ID NO:7), respectively. […] The results shown are representative of three independent experiments.

[4] = target: mixture of rat brain PKC isozymes (α, β, γ, δ, ε and ζ) (rat); experiment: cell-based or functional assay
[5] = target: mixture of rat brain PKC isozymes (α, β, γ, δ, ε and ζ) (rat); experiment: overlay plus overlay-extraction assay; 10 µM peptide preincubated with PKC isozyme mixture (~10 nM each); immobilized RACK1
[6] = target: T3, βPKC (rat brain protein kinase C, β isozyme) (rat, UniProt P68403 2-671); experiment: slot-blot PKC overlay of immobilized peptide, with PS, DG and calcium, anti-βPKC detection
T3 construct: also called beta PKC; βPKC isozyme

[7] = peptide 50 μM microinjected, insulin 8.25 μg/ml
[8] = peptide introduced into cardiac myocytes

**Q.** Which “nicking of βPKC by Arg-C (78 kDa fragment)” value (βPKC) does the source give for “control peptide: control peptide (SEQ ID NO:9) (LKGKIL) [reference compound]” here?
**A.** The value was “did not result in appreciable nicking activity; also recorded: did not occur”.

**Q.** What about the “delay to onset of maturation after exposure to insulin” value (Xenopus oocytes; [7]) of the same molecule?
**A.** The value was 4 to 5 h.

**Q.** What about the “time to reach GVBD plateau after insulin exposure” value (Xenopus oocytes; [7]) of the same molecule?
**A.** Its value is 10 to 12 h.

**Q.** What about the “plateau % GVBD (fraction of oocytes reaching maturation) following insulin exposure” value (Xenopus oocytes; insulin 8.25 μg/ml) of the same molecule?
**A.** The value was 85-90%.

**Q.** And the “induction of PKC autophosphorylation (in words)” value (PKC [1])?
**A.** Its value is “No autophosphorylation; also recorded: Neither peptide I nor control peptide induced PKC autophosphorylation”.

**Q.** “βPKC: β isozyme of protein kinase C, major component of the rat brain PKC mixture” was tested. Which “maximal binding to RACK1” value (RACK1) did it give?
**A.** Its value is ~4 nM.

**Q.** And the Kd (RACK1; read-out: mean half maximal binding to RACK1)?
**A.** Its Kd is ~0.375 nM.

**Q.** Which results are given for “peptide rIII: seven amino acid peptide identical to a segment of RACK1 WD-40 repeat III (DVLSVAF)”?
**A.** induction of PKC-mediated histone phosphorylation (PKC [2]): similarly induced histone phosphorylation; NE-induced translocation of δ and εPKC (δ and εPKC isozymes; norepinephrine 2 μM): further enhanced; degradation of PKC isozymes (δ and εPKC isozymes; [8]): followed by degradation of these activated isozymes; also recorded: accelerated the degradation of PKC; translocation / distribution of δ and εPKC isozymes in the absence of hormone stimulation (δ and εPKC isozymes; [8]): caused an immediate translocation; nicking of βPKC by Arg-C (78 kDa fragment) (βPKC): appearance of the 78 kDa nicked PKC fragment; effect on insulin-induced oocyte maturation (in words) (Xenopus oocytes; at 50 and 500 μM): enhances insulin-induced oocyte maturation; plateau % GVBD (fraction of oocytes reaching maturation) following insulin exposure (Xenopus oocytes; insulin 8.25 μg/ml): ~100%; effect on insulin-induced oocyte maturation (in words) (Xenopus oocytes; peptide microinjected, insulin): potentiated the effects of insulin on oocyte maturation; inhibition of PKC binding to RACK1 (in words) [3]: inhibit the binding of PKC to RACK1; also recorded: somewhat more effective than peptide rVI

**Q.** DIINALCF [peptide rVI] was tested. Which PKC autophosphorylation in the absence of PKC activators [4] did it give?
**A.** Its PKC autophosphorylation in the absence of PKC activators is > 80%.

**Q.** Which % inhibition of PKC binding to recombinant RACK1 [5] does the source give for KGDYEKILVALCGGN [peptide I] here?
**A.** The % inhibition of PKC binding to recombinant RACK1 was 81%.

**Q.** Does LKGKIL [control peptide] bind [6]?
**A.** Result: no binding
